Here are results for four compounds from ChEMBL document CHEMBL1158432, “A novel photoaffinity ligand for the dopamine transporter based on pyrovalerone” (Bioorg Med Chem, 2009).

Broadly, the Ki is the equilibrium dissociation constant of an inhibitor or competing ligand from its target. The IC50 is the concentration needed to halve the response being measured. The low end stands for greater potency in that assay, the high end for weaker potency in that assay.

Type in all cases: cell-based
Experiment [1] concerns the target T1, Sodium-dependent dopamine transporter (Homo sapiens, UniProt Q01959). In words: Displacement of [3H]WIN-35428 from human dopamine transporter expressed in mouse N2A cells by scintillation counting. (In general: Loss of bound radioactivity is the signal in a displacement assay; it reports binding, not function.)
In experiment [2] the target is Sodium-dependent dopamine transporter (Rattus norvegicus) (UniProt P23977). As to the kind of experiment: Binding affinity to rat dopamine transporter expressed in pig LLC-PK1 cells assessed as drug incorporation at 30 nM after 1 hr by SDS-PAGE analysis. The settings on record: tested as the 125I-labelled form.
Experiment [3] concerns the target T1, Sodium-dependent dopamine transporter. As to the kind of experiment: Inhibition of [3H]dopamine uptake at human dopamine transporter expressed in mouse N2A cells by scintillation counting.
Experiment [4] addresses Sodium-dependent dopamine transporter (Rattus norvegicus) (UniProt P23977). In words: Binding affinity to rat dopamine transporter expressed in pig LLC-PK1 cells assessed as drug incorporation at 30 nM after 1 hr by SDS-PAGE analysis in presence of cocaine. The settings on record: tested as the 125I-labelled form.

Activity calls are given as the source filed them. The rule behind the calls is not given here.

T1 sequence (Q01959 whole entry): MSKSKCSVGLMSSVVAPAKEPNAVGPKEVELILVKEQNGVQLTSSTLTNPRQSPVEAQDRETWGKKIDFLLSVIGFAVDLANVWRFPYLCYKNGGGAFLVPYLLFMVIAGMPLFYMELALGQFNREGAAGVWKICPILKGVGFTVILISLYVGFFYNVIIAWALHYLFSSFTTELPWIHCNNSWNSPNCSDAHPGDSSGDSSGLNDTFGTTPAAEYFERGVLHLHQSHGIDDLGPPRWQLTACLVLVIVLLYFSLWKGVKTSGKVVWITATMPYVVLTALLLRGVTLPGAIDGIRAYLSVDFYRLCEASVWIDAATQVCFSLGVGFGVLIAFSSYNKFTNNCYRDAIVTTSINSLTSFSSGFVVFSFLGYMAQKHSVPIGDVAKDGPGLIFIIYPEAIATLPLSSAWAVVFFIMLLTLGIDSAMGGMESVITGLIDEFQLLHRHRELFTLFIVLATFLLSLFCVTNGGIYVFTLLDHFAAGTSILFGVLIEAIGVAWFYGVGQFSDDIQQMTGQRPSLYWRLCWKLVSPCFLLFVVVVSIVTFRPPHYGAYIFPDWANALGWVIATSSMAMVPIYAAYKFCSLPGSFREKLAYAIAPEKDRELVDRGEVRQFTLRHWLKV
Chain of Sodium-dependent dopamine transporter (Rattus norvegicus) (P23977 whole entry): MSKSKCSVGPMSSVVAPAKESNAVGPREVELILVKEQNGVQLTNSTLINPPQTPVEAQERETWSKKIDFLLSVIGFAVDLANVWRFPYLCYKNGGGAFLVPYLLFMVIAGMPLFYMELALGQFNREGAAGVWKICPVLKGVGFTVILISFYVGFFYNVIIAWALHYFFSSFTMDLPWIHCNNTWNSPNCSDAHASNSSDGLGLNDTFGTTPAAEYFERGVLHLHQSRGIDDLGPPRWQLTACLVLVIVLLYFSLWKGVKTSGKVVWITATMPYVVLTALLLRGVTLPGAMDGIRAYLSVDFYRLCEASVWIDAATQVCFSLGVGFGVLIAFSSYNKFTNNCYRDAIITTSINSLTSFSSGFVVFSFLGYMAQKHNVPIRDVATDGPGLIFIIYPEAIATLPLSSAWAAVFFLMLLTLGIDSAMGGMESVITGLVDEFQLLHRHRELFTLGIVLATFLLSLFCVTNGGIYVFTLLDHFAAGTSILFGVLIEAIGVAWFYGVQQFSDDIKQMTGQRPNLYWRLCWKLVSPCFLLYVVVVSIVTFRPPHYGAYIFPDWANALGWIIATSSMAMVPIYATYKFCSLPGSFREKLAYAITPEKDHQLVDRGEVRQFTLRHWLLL

Compound `CCCC(C(=O)c1ccc(N=[N+]=[N-])c(I)c1)N1CCCC1` (stereo not given) came in with an inhibition constant (Ki) in experiment [1] of 78 nM. Moreover, the outcome in experiment [2] was Active. Further, in experiment [3], 264 nM corresponded to half-maximal inhibition (IC50). For the same compound, the result in experiment [4] was inactive.
`CCCC(C(=O)c1ccc(N)cc1)N1CCCC1` (stereo not given): the affinity in experiment [1], expressed as Ki, was 5 nM. For the same compound, in experiment [3], half-maximal inhibition (IC50) was put at 7 nM.
The corresponding values for `CCCC(C(=O)c1ccc(C)cc1)N1CCCC1` (stereo not given) [PYROVALERONE] are 8 nM and 32 nM.
The corresponding values for `CCCC(C(=O)c1ccc(N)c(I)c1)N1CCCC1` (stereo not given) are 28 nM and 175 nM.
